# Legend:
# [1] = tested on: blackgrass; assay: Test C preemergence; format: in vivo, Alopecurus myosuroides; conditions: preemergence; for Plant response rating, Blackgrass: 125 g ai/ha, scale 0 to 100, 0 = no effect, 100 = complete control
# Procedure, shortened: (§1)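 Visual rating, 0–100 scale (0 no effect, 100 complete control), vs untreated controls after 13–15 d greenhouse. Pre: seeds in loam/sand, treated at sowing. Post: plants in peat-based mix, 1- to 4-leaf (2–18 cm). Solvent + surfactant formulation, non-phytotoxic.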
# [2] = tested on: waterhemp; assay: Test C postemergence; format: in vivo, Amaranthus rudis; conditions: postemergence; for Plant response rating, Waterhemp: 250 g ai/ha, scale 0 to 100 (0 no effect, 100 complete control); for Waterhemp plant response rating: scale 0 to 100
# Procedure, shortened: as §1
# [3] = tested on: oilseed rape; assay: Test C postemergence; format: in vivo, Brassica napus; conditions: postemergence; for Oilseed Rape plant response rating: 62 g ai/ha, scale 0 to 100
# Procedure, shortened: as §1
# [4] = tested on: foxtail, giant; assay: Test A preemergence; format: in vivo, Setaria faberii; conditions: preemergence; for Foxtail, Giant plant response rating (0 to 100 scale): 125 g ai/ha, visual injury approx. 10 days after treatment; for Foxtail, Giant plant response rating: 500 g ai/ha, visual injury after approx. 10 days, 0 to 100 scale (0 no effect, 100 complete control)
# Procedure, shortened: (§2)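 Both timings tested concurrently in loam/sand soil: preemergence by directed soil spray, postemergence on plants of 2–10 cm at the one- to two-leaf stage. Greenhouse holding period was approximately 10 days before visual injury assessment (0–100, 0 = no effect).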
# [5] = tested on: johnsongrass; assay: Test C preemergence; format: in vivo, Sorghum halepense; conditions: preemergence; for Plant response rating, Johnsongrass: 125 g ai/ha, scale 0 to 100, 0 = no effect, 100 = complete control
# Procedure, shortened: as §1
# [6] = tested on: pigweed; assay: Test A preemergence; format: in vivo, Amaranthus retroflexus; conditions: preemergence; for Pigweed plant response rating (0 to 100 scale): 125 g ai/ha, visual injury approx. 10 days after treatment; for Pigweed plant response rating: 500 g ai/ha, visual injury after approx. 10 days, 0 to 100 scale (0 no effect, 100 complete control)
# Procedure, shortened: as §2
# [7] = tested on: johnsongrass; assay: Test C postemergence; format: in vivo, Sorghum halepense; conditions: for Plant response rating (scale of 0 to 100 where 0 is no effect and 100 is complete control), Johnsongrass: Postemergence, 31 g ai/ha, visually evaluated after 13 to 15 days; for Johnsongrass plant response rating / Plant response rating, Johnsongrass: postemergence; for Johnsongrass plant response rating: 62 g ai/ha, scale 0 to 100
# Procedure, shortened: as §1
# [8] = tested on: barnyardgrass; assay: Test B flood; format: in vivo, Echinochloa crus-galli; conditions: 250 g ai/ha, visual rating on 0 to 100 scale (0 no effect, 100 complete control), 13 to 15 days
# Procedure, shortened: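 Two-leaf-stage plants, pots flooded (3 cm above soil) and treated through the water, which stayed at that depth. After 13–15 days in greenhouse conditions, visual assessment versus controls: 0 is no effect, 100 complete control, dash means no result.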
# [9] = tested on: blackgrass; assay: Test C postemergence; format: in vivo, Alopecurus myosuroides; conditions: for Plant response rating (scale of 0 to 100 where 0 is no effect and 100 is complete control), Blackgrass: Postemergence, 31 g ai/ha, visually evaluated after 13 to 15 days; for Blackgrass plant response rating / Plant response rating, Blackgrass: postemergence; for Blackgrass plant response rating: 62 g ai/ha, scale 0 to 100
# Procedure, shortened: as §1
# [10] = tested on: pigweed; assay: Test C preemergence; format: in vivo, Amaranthus retroflexus; conditions: preemergence; for Plant response rating, Pigweed: 125 g ai/ha, scale 0 to 100, 0 = no effect, 100 = complete control
# Procedure, shortened: as §1
# [11] = tested on: wheat; assay: Test A preemergence; format: in vivo, Triticum aestivum; conditions: preemergence; for Wheat plant response rating (0 to 100 scale): 125 g ai/ha, visual injury approx. 10 days after treatment; for Wheat plant response rating: 500 g ai/ha, visual injury after approx. 10 days, 0 to 100 scale (0 no effect, 100 complete control)
# Procedure, shortened: as §2
# [12] = tested on: lambsquarters; assay: Test C preemergence; format: in vivo, Chenopodium album; conditions: preemergence; for Plant response rating, Lambsquarters: 125 g ai/ha, scale 0 to 100, 0 = no effect, 100 = complete control
# Procedure, shortened: as §1
# [13] = tested on: crabgrass, large; assay: Test C postemergence; format: in vivo, Digitaria sanguinalis; conditions: for Plant response rating (scale of 0 to 100 where 0 is no effect and 100 is complete control), Crabgrass, Large: Postemergence, 31 g ai/ha, visually evaluated after 13 to 15 days; for Crabgrass, Large plant response rating / Plant response rating, Crabgrass, Large: postemergence; for Crabgrass, Large plant response rating: 62 g ai/ha, scale 0 to 100
# Procedure, shortened: as §1
# [14] = tested on: velvetleaf; assay: Test A preemergence; format: in vivo, Abutilon theophrasti; conditions: preemergence; for Velvetleaf plant response rating (0 to 100 scale): 125 g ai/ha, visual injury approx. 10 days after treatment; for Velvetleaf plant response rating: 500 g ai/ha, visual injury after approx. 10 days, 0 to 100 scale (0 no effect, 100 complete control)
# Procedure, shortened: as §2
# [15] = 31 g ai/ha, visual rating, scale 0 to 100 (0 no effect, 100 complete control), 13 to 15 days
# [16] = 62 g ai/ha, scale 0 to 100 (0 no effect, 100 complete control), 13 to 15 days
# [17] = 250 g ai/ha, scale 0 to 100, 0 is no effect, 100 is complete control
# [18] = 250 g ai/ha, scale 0 to 100 (0 no effect, 100 complete control)
# [19] = 125 g ai/ha, scale 0 to 100, 0 no effect, 100 complete control
compound,measurement,setting,value
CCNC(=O)c1cc(CC)n(Cc2cc(C(F)(F)F)nn2C)n1 [Compound 154],Blackgrass plant response rating,[1]; [15],75
same,Blackgrass plant response rating,[1]; [16],90
same,"Plant response rating, Blackgrass",[1]; 13 to 15 days,90
same,Blackgrass plant response rating,[1]; [17],90
same,"Plant response rating, Waterhemp",[2],85
same,Waterhemp plant response rating,[2],65
same,Oilseed Rape plant response rating,[3],45
same,"Plant response rating, Oilseed Rape",[3]; [18],70
same,"Plant response rating, Oilseed Rape",[3]; [19],60
same,"Foxtail, Giant plant response rating (0 to 100 scale)",[4],100
same,"Foxtail, Giant plant response rating",[4],100
same,Johnsongrass plant response rating,[5]; [15],5
same,Johnsongrass plant response rating,[5]; [16],5
same,"Plant response rating, Johnsongrass",[5]; 13 to 15 days,55
same,Johnsongrass plant response rating,[5]; [17],85
same,Pigweed plant response rating (0 to 100 scale),[6],100
same,Pigweed plant response rating,[6],100
same,"Plant response rating (scale of 0 to 100 where 0 is no effect and 100 is complete control), Johnsongrass",[7],0
same,Johnsongrass plant response rating,[7],0
same,"Plant response rating, Johnsongrass",[7]; [18],5
same,"Plant response rating, Johnsongrass",[7]; [19],5
same,"Plant response rating, Barnyardgrass",[8],45
same,"Plant response rating (scale of 0 to 100 where 0 is no effect and 100 is complete control), Blackgrass",[9],0
same,Blackgrass plant response rating,[9],0
same,"Plant response rating, Blackgrass",[9]; [18],40
same,"Plant response rating, Blackgrass",[9]; [19],10
same,Pigweed plant response rating,[10]; [15],85
same,Pigweed plant response rating,[10]; [16],98
same,"Plant response rating, Pigweed",[10]; 13 to 15 days,100
same,Pigweed plant response rating,[10]; [17],100
same,Wheat plant response rating (0 to 100 scale),[11],0
same,Wheat plant response rating,[11],100
same,Lambsquarters plant response rating,[12]; [15],65
same,Lambsquarters plant response rating,[12]; [16],98
same,"Plant response rating, Lambsquarters",[12]; 13 to 15 days,100
same,Lambsquarters plant response rating,[12]; [17],98
same,"Plant response rating (scale of 0 to 100 where 0 is no effect and 100 is complete control), Crabgrass, Large",[13],5
same,"Crabgrass, Large plant response rating",[13],5
same,"Plant response rating, Crabgrass, Large",[13]; [18],10
same,"Plant response rating, Crabgrass, Large",[13]; [19],5
same,Velvetleaf plant response rating (0 to 100 scale),[14],90
same,Velvetleaf plant response rating,[14],100
CCCNC(=O)c1cc(CCF)n(Cc2ccnc(C(F)(F)F)c2)n1 [Compound 177],Blackgrass plant response rating,[1]; [15],50
same,Blackgrass plant response rating,[1]; [16],85
same,"Plant response rating, Blackgrass",[1]; 13 to 15 days,90
same,Blackgrass plant response rating,[1]; [17],90
same,"Plant response rating, Waterhemp",[2],65
same,Waterhemp plant response rating,[2],75
same,Oilseed Rape plant response rating,[3],50
same,"Plant response rating, Oilseed Rape",[3]; [18],70
same,"Plant response rating, Oilseed Rape",[3]; [19],60
same,"Foxtail, Giant plant response rating (0 to 100 scale)",[4],100
same,"Foxtail, Giant plant response rating",[4],100
same,Johnsongrass plant response rating,[5]; [15],10
same,Johnsongrass plant response rating,[5]; [16],70
same,"Plant response rating, Johnsongrass",[5]; 13 to 15 days,100
same,Johnsongrass plant response rating,[5]; [17],98
same,Pigweed plant response rating (0 to 100 scale),[6],100
same,Pigweed plant response rating,[6],100
same,"Plant response rating (scale of 0 to 100 where 0 is no effect and 100 is complete control), Johnsongrass",[7],0
same,Johnsongrass plant response rating,[7],0
same,"Plant response rating, Johnsongrass",[7]; [18],5
same,"Plant response rating, Johnsongrass",[7]; [19],5
same,"Plant response rating, Barnyardgrass",[8],60
same,"Plant response rating (scale of 0 to 100 where 0 is no effect and 100 is complete control), Blackgrass",[9],20
same,Blackgrass plant response rating,[9],15
same,"Plant response rating, Blackgrass",[9]; [18],35
same,"Plant response rating, Blackgrass",[9]; [19],20
same,Pigweed plant response rating,[10]; [15],100
same,Pigweed plant response rating,[10]; [16],100
same,"Plant response rating, Pigweed",[10]; 13 to 15 days,100
same,Pigweed plant response rating,[10]; [17],100
same,Wheat plant response rating (0 to 100 scale),[11],10
same,Wheat plant response rating,[11],100
same,Lambsquarters plant response rating,[12]; [15],85
same,Lambsquarters plant response rating,[12]; [16],98
same,"Plant response rating, Lambsquarters",[12]; 13 to 15 days,98
same,Lambsquarters plant response rating,[12]; [17],98
same,"Plant response rating (scale of 0 to 100 where 0 is no effect and 100 is complete control), Crabgrass, Large",[13],5
same,"Crabgrass, Large plant response rating",[13],5
same,"Plant response rating, Crabgrass, Large",[13]; [18],10
same,"Plant response rating, Crabgrass, Large",[13]; [19],5
same,Velvetleaf plant response rating (0 to 100 scale),[14],40
same,Velvetleaf plant response rating,[14],100

# — patent US20150105252A1, “SUBSTITUTED PYRAZOLES AS HERBICIDES” (E I DU PONT DE NEMOURS AND COMPANY, priority 2013, published 2015)
